Publication PMC9377007, “An Unexpected Deuterium-Induced Metabolic Switch in Doxophylline” (ACS Medicinal Chemistry Letters, 2022)

Tested on: P. aeruginosa-induced lung injury
Assay: Pseudomonas aeruginosa-induced lung injury model
Assay type: in vivo
Conditions: P. aeruginosa-treated mice; for MPO activity in lungs / apoptosis in lung tissue, TUNEL assay / collagen deposition (Masson's trichrome) / histological examination by H&E staining / immunohistochemistry of PAR / immunohistochemistry of nitrotyrosine / total BAL cellularity: 80 mg/kg os daily for 7 days; for lung edema, ratio of wet to dry weight of lung tissue: 80 mg/kg os daily, day 7, versus vehicle
Description: Lung edema at day 7 was measured as a ratio of wet to dry weight of excised lung tissue (Figure 7c).
Figure 7 Model of pulmonary fibrosis induced by P. aeruginosa. (a) Representative scheme of P. aeruginosa-induced lung injury model. (b) Total BAL cellularity of sham and Pseudomonas-treated mice (treated or not with 80 mg/kg doxophylline, d4-doxophylline, or d7-doxophylline). Results are reported as mean ± SEM of 10 mice for all groups. (c) Wet/dry lung weight ratio of sham and Pseudomonas-treated mice (treated or not with 80 mg/kg doxophylline, d4-doxophylline, or d7-doxophylline). Results are reported as mean ± SEM of 10 mice for all groups. (d) MPO activity in lungs of sham and Pseudomonas-treated mice (treated or not with 80 mg/kg doxophylline, d4-doxophylline, or d7-doxophylline). Results are reported as mean ± SEM of 10 mice for all groups. (e) Representative images of H&E staining of sham and Pseudomonas-treated mice (treated or not with 80 mg/doxophylline, d4-doxophylline, or d7-doxophylline). (f) Representative images of Masson’s trichrome staining of sham and Pseudomonas-treated mice (treated or not with 80 mg/doxophylline, d4-doxophylline and d7-doxophylline). p values: *, p < 0.05; **, p < 0.01; ***, p < 0.001; ****, p < 0.0001. […]
experiments were performed following the new regulations of USA (Animal Welfare Assurance No A5594 - 01), Europe (EU Directive 2010/63) , Italy (D.Lgs 2014/26) and the ARRIVE guidelines.
Tryptic soya agar beads laden with PA were produced as described. The mucoid PA strain NH57388A, was utilized. NH57388A-laden agar beads were prepared the day before inoculation, stored overnight at 4 °C, suspended in sterile PBS to deliver approximately 1 Å~ 106 CFU in 50 μ l per mouse. The inoculation dose […]
Trans-tracheal instillation of beads.
Mice were anaesthetized with inhaled isoflurane delivered initially in an anaesthetic box until unconscious, transferred to a surgical board and maintained under anesthesia with isoflurane via nose cone. The ventral cervical region was sterilized and 1-cm midline skin incision made just cranial to the thoracic inlet. The trachea was visualized by blunt dissection. Traction on the lower jaw was used to extend and straighten the trachea and a 22G intravenous catheter (BD Biosciences) used to cannulate the trachea. A 1-ml syringe, pre-filled with beads suspended in PBS, was attached to the cannuale. The cannulae and syringe were left in-situ for 5-seconds following depression of the plunger, followed by slow withdrawal. The animal was elevated head up to 45- […]
intrapulmonary bead instillation. If evidence of respiratory distress (rapid or labored respiration/ gasping) occurred during the procedure anesthesia was rapidly reversed and oxygen alone administered via nose cone.
The incision was closed with surgical staples. Buprenorphine analgesia was administered subcutaneously post-operatively. Animals were weighed and scored clinically daily. Experiments were terminated at 2-weeks post-inoculation via anesthetic overdose.
Mice were randomly allocated into the following groups. PSEUDOMONAS group: mice were subjected to pseudomonas-induced lung injury (n = 10); PSEUDOMONAS group + doxophylline: Identical to the pseudomonas + vehicle group but were treated daily with doxophylline xo (80 mg/kg os) 1 h after pseudomonas instillation and continued daily for 7 days (n = 10); PSEUDOMONAS group + d4- doxophylline:
Identical to the pseudomonas + vehicle group but were treated daily with doxophylline deuterated d4 (80 mg/kg os) 1 h after pseudomonas instillation and continued daily for 7 days ( n = 10); PSEUDOMONAS group + d7- doxophylline: Identical to the pseudomonas + vehicle group but were treated daily with doxophylline deuterated d7 (80 mg/kg os) 1 h after pseudomonas instillation and continued daily for 7 days (n = 10); SHAM group: mice will receive the vehicle administration daily for 7 days ([…]); SHAM + doxophylline group: […]

Structure (SMILES) | MPO activity in lungs | apoptosis in lung tissue, TUNEL assay | collagen deposition (Masson's trichrome) | histological examination by H&E staining | immunohistochemistry of PAR | immunohistochemistry of nitrotyrosine | total BAL cellularity | lung edema, ratio of wet to dry weight of lung tissue
[2H]C1([2H])OC([2H])(C([2H])([2H])n2cnc3c2c(=O)n(C)c(=O)n3C)OC1([2H])[2H] [d7-doxophylline] | significantly reduced | reverted | effect | reduction of the inflammatory interstitial infiltrate | effect | effect | significantly reduced | considerably decreased
Cn1c(=O)c2c(ncn2CC2OCCO2)n(C)c1=O [doxophylline] | significantly reduced | reverted | effect | reduction of the inflammatory interstitial infiltrate | effect | effect | significantly reduced | considerably decreased
[2H]C1([2H])OC(Cn2cnc3c2c(=O)n(C)c(=O)n3C)OC1([2H])[2H] [d4-doxophylline] | lesser nonsignificant effect | did not have any effect | lesser or no effect | reduction of the inflammatory interstitial infiltrate | lesser or no effect | lesser or no effect | increased total BAL cellularity | –
